Measurements taken from US20230295131A1, “INHIBITORS OF RHO-ASSOCIATED COILED-COIL KINASE” (Angion Biomedica Corp., priority 2020, published 2023).

Columns and labels:
ROCK1 = molecular target: T1, ROCK1 (Homo sapiens, UniProt Q13464); assay: ROCK1 kinase binding affinity, DiscoverX KINOMEscan KdELECT; details: 11-point 3-fold dilution
T1 construct: T7 phage fusion (kinase-tagged phage) or DNA tag for qPCR detection
Method: (§1) 1. ROCK1 and ROCK2 kinase assays: The ROCK1 and ROCK2 kinase binding affinities of compounds in this disclosure were determined by DiscoverX's KINOMEscan™ KdELECT technology (https://www.discoverx.com/kinomescan-elect-kinase-screening-and-profiling-services): Kinase-tagged T7 phage strains were prepared in an E. coli host derived from the BL21 strain. E. coli were grown to log-phase and infected with T7 phage and incubated with shaking at 32° C. until lysis. The lysates were centrifuged and filtered to remove cell debris. The remaining kinases were produced in HEK-293 cells and subsequently tagged with DNA for qPCR detection. […] The liganded beads were blocked with excess biotin and washed with blocking buffer (SeaBlock (Pierce), 1% BSA, 0.05% Tween 20, 1 mM DTT) to remove unbound ligand and to reduce nonspecific binding. […] Kds were determined using an 11-point 3-fold compound dilution series with three DMSO control points. […] The compounds were then diluted directly into the assays such that the final concentration of DMSO was 0.9%. All reactions performed in polypropylene 384-well plate. Each was a final volume of 0.02 ml. […] The kinase concentration in the eluates was measured by qPCR.

ROCK2 = molecular target: T2, ROCK2 (Homo sapiens, UniProt O75116); assay: ROCK2 kinase binding affinity, DiscoverX KINOMEscan KdELECT; details: for Kd: KINOMEscan KdELECT, 11-point 3-fold dilution, read-out: Kd (μM) ROCK2; for ROCK2 Selectivity: selectivity for ROCK2 over ROCK1 from Kd
T2 construct: T7 phage fusion (kinase-tagged phage) or DNA tag for qPCR detection
T2 sequence (O75116 whole entry, the tested form may be a part): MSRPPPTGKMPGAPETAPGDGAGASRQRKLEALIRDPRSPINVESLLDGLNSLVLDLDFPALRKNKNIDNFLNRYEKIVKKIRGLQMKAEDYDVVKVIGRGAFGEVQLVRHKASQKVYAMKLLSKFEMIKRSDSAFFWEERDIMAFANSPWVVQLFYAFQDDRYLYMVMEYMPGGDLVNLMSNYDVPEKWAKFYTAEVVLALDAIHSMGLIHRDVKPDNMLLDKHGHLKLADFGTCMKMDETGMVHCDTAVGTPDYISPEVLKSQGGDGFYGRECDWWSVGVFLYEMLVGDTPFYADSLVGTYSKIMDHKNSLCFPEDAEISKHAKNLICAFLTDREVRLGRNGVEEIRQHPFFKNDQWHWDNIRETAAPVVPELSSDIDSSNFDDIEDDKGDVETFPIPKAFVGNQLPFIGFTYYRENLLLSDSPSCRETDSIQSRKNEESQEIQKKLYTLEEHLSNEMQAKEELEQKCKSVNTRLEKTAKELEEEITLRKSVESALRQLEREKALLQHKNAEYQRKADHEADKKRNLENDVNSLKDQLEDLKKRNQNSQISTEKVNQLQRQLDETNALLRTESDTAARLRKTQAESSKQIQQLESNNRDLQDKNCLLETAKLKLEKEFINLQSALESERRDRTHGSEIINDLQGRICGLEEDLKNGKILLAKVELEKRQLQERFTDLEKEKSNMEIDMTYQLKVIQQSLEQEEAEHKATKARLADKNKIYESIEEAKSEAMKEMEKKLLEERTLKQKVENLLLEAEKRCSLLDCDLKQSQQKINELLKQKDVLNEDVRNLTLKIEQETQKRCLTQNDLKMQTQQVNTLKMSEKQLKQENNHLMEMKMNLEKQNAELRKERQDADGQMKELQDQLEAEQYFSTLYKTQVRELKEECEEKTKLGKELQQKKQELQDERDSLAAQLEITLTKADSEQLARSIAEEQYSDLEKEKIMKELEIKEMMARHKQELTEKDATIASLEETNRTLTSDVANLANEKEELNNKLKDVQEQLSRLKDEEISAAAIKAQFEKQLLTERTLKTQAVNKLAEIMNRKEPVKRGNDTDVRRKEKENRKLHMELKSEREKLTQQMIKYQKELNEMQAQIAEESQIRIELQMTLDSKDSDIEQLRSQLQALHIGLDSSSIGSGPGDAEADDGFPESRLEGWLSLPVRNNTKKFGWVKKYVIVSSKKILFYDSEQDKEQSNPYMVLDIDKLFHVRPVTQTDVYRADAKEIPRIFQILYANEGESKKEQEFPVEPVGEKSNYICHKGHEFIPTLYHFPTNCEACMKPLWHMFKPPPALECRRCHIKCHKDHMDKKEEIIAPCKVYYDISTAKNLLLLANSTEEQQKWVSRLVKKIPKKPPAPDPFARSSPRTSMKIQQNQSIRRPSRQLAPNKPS
Method: as §1

T1 sequence (Q13464 whole entry, the tested form may be a part): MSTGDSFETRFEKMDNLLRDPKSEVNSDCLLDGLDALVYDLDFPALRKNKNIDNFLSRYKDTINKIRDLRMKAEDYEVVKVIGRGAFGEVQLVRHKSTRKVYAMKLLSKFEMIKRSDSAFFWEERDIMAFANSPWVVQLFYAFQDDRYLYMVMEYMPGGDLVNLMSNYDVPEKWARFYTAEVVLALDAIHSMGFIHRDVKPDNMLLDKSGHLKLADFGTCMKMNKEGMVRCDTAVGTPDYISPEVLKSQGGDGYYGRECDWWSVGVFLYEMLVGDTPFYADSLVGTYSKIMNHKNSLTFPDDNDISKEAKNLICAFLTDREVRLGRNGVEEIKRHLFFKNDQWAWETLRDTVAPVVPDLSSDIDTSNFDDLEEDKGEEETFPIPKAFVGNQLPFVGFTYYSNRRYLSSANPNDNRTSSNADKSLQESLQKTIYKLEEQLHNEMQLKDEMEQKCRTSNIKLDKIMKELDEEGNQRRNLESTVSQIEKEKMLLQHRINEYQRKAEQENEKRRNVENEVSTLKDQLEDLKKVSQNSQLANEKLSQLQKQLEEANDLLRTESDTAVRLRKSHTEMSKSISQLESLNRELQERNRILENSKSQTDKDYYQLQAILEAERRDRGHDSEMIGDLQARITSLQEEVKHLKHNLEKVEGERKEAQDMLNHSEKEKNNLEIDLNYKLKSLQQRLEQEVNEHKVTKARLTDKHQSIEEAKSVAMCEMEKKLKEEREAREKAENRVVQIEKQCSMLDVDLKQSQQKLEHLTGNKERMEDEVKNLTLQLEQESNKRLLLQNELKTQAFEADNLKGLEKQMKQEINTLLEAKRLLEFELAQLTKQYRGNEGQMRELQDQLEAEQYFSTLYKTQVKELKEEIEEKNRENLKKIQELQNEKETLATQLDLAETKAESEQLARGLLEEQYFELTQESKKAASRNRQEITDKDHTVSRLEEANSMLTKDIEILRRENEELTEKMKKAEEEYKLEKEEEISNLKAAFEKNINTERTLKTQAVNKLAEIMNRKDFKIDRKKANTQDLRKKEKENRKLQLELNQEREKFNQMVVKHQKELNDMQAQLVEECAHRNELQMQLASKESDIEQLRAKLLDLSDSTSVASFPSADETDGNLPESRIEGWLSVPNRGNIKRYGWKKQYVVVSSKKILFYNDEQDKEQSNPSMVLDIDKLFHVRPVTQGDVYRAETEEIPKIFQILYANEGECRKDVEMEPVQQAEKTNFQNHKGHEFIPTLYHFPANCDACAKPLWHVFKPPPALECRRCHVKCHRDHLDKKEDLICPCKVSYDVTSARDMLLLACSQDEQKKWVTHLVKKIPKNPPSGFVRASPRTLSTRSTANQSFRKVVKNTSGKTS

Row | SMILES | Kd (ROCK1) | Kd (ROCK2) | ROCK2 Selectivity (ROCK2)
1 | O=C(O)[C@H]1CC[C@@H](Nc2nccc(-c3nccc(C#Cc4ccc5[nH]ncc5c4)n3)n2)CC1 [Ex. 92, (1s,4s)-4-((4-((1H-Indazol-5-yl)ethynyl)-[2,4′-bipyrimidin]-2′-yl)amino)cyclohexanecarboxylic acid] | 0.1 to 0.99 µM | 0.01 to 0.099 µM | * (<50-fold selectivity for ROCK2)
2 | Fc1cc(C#Cc2ccnc(-c3ccnc(NCC4CCCO4)n3)n2)cc2cn[nH]c12 (stereo not drawn) [Ex. 49, 4-((7-Fluoro-1H-indazol-5-yl)ethynyl)-N-((tetrahydrofuran-2-yl)methyl)-[2,4′-bipyrimidin]-2′-amine] | 1 to 9.9 µM | < 0.01 µM | *** (151 to 500-fold selectivity for ROCK2)
3 | O=C(CNc1nccc(-c2nccc(C#Cc3ccc4[nH]nc(F)c4c3)n2)n1)N1CCOCC1 [Ex. 77, 2-((4-((3-Fluoro-1H-indazol-5-yl)ethynyl)-[2,4′-bipyrimidin]-2′-yl)amino)-1-morpholinoethanone] | 10 to 100 µM | 0.01 to 0.099 µM | *** (151 to 500-fold selectivity for ROCK2)
4 | CC(C)(N)CNc1nccc(-c2nccc(C#Cc3ccc4[nH]ncc4c3)n2)n1 [Ex. 89, N1-(4-((1H-Indazol-5-yl)ethynyl)-[2,4′-bipyrimidin]-2′-yl)-2-methylpropane-1,2-diamine] | 1 to 9.9 µM | 0.1 to 0.99 µM | * (<50-fold selectivity for ROCK2)
5 | Fc1cnccc1CNc1nccc(-c2nccc(C#Cc3ccc4[nH]ncc4c3)n2)n1 [Ex. 31, 4-((1H-Indazol-5-yl)ethynyl)-N-((3-fluoropyridin-4-yl)methyl)-[2,4′-bipyrimidin]-2′-amine] | 1 to 9.9 µM | 0.01 to 0.099 µM | ** (50 to 150-fold selectivity for ROCK2)
6 | C(#Cc1ccnc(-c2ccnc(NC[C@@H]3CCOC3)n2)n1)c1ccc2[nH]ncc2c1 [Ex. 58, (S)-4-((1H-Indazol-5-yl)ethynyl)-N-((tetrahydrofuran-3-yl)methyl)-[2,4′-bipyrimidin]-2′-amine] | 1 to 9.9 µM | < 0.01 µM | **** (>500-fold selectivity for ROCK2)
7 | O[C@H]1CC[C@@H](Nc2nccc(-c3nccc(C#Cc4ccn5cnnc5c4)n3)n2)CC1 [Ex. 97, (1s,4s)-4-((4-([1,2,4]Triazolo[4,3-a]pyridin-7-ylethynyl)-[2,4′-bipyrimidin]-2′-yl)amino)cyclohexanol] | 10 to 100 µM | 10 to 100 µM | * (<50-fold selectivity for ROCK2)
8 | O[C@@H]1CC[C@H](Nc2nccc(-c3nccc(C#Cc4ccc5[nH]ncc5c4)n3)n2)C1 [Ex. 74, (1R,3S)-3-((4-((1H-indazol-5-yl)ethynyl)-[2,4′-bipyrimidin]-2′-yl)amino)cyclopentanol] | 0.1 to 0.99 µM | < 0.01 µM | **** (>500-fold selectivity for ROCK2)
9 | FC1(F)Oc2ccc(CNc3nccc(-c4nccc(C#Cc5ccc6[nH]ncc6c5)n4)n3)cc2O1 [Ex. 13, 4-((1H-Indazol-5-yl)ethynyl)-N-((2,2-difluorobenzo[d][1,3]dioxol-5-yl)methyl)-[2,4′-bipyrimidin]-2′-amine] | 10 to 100 µM | 0.1 to 0.99 µM | ** (50 to 150-fold selectivity for ROCK2)
10 | C(#Cc1ccnc(-c2ccnc(NCc3ncc[nH]3)n2)n1)c1ccc2[nH]ncc2c1 [Ex. 23, N-((1H-Imidazol-2-yl)methyl)-4-((1H-indazol-5-yl)ethynyl)-[2,4′-bipyrimidin]-2′-amine] | 1 to 9.9 µM | 0.01 to 0.099 µM | ** (50 to 150-fold selectivity for ROCK2)
11 | O[C@H]1CC[C@H](Nc2nccc(-c3nccc(C#Cc4ccc5[nH]ncc5c4)n3)n2)C1 [Ex. 90, (1S,3S)-3-((4-((1H-Indazol-5-yl)ethynyl)-[2,4′-bipyrimidin]-2′-yl)amino)cyclopentanol] | 1 to 9.9 µM | < 0.01 µM | *** (151 to 500-fold selectivity for ROCK2)
12 | Fc1ncccc1CNc1nccc(-c2nccc(C#Cc3cc(F)c4[nH]ncc4c3)n2)n1 [Ex. 42, 4-((7-Fluoro-1H-indazol-5-yl)ethynyl)-N-((2-fluoropyridin-3-yl)methyl)-[2,4′-bipyrimidin]-2′-amine] | 1 to 9.9 µM | 0.01 to 0.099 µM | ** (50 to 150-fold selectivity for ROCK2)
13 | O=C(CNc1nccc(-c2nccc(C#Cc3ccc4[nH]ncc4c3)n2)n1)N1CC[C@H](O)C1 [Ex. 1, (S)-2-((4-((1H-Indazol-5-yl)ethynyl)-[2,4′-bipyrimidin]-2′-yl)amino)-1-(3-hydroxypyrrolidin-1-yl)ethanone] | 0.1 to 0.99 µM | < 0.01 µM | ** (50 to 150-fold selectivity for ROCK2)
14 | Cc1cnc(F)c(CNc2nccc(-c3nccc(C#Cc4ccc5[nH]ncc5c4)n3)n2)c1 [Ex. 72, 4-((1H-Indazol-5-yl)ethynyl)-N-((2-fluoro-5-methylpyridin-3-yl)methyl)-[2,4′-bipyrimidin]-2′-amine] | 10 to 100 µM | 10 to 100 µM | * (<50-fold selectivity for ROCK2)
15 | CN(C)CCNc1nccc(-c2nccc(C#Cc3ccc4[nH]ncc4c3)n2)n1 [Ex. 54, N1-(4-((1H-Indazol-5-yl)ethynyl)-[2,4′-bipyrimidin]-2′-yl)-N2,N2-dimethylethane-1,2-diamine] | 1 to 9.9 µM | 0.1 to 0.99 µM | * (<50-fold selectivity for ROCK2)
16 | OC[C@H]1CC[C@@H](CNc2nccc(-c3nccc(C#Cc4ccc5[nH]ncc5c4)n3)n2)O1 [Ex. 51, ((2R,5S)-5-(((4-((1H-Indazol-5-yl)ethynyl)-[2,4′-bipyrimidin]-2′-yl)amino)methyl)tetrahydrofuran-2-yl)methanol] | 0.1 to 0.99 µM | < 0.01 µM | *** (151 to 500-fold selectivity for ROCK2)
17 | C(#Cc1ccnc(-c2ccnc(NCC3CCCO3)n2)n1)c1ccc2[nH]ncc2c1 (stereo not drawn) [Ex. 17, 4-((1H-Indazol-5-yl)ethynyl)-N-((tetrahydrofuran-2-yl)methyl)-[2,4′-bipyrimidin]-2′-amine] | 0.1 to 0.99 µM | < 0.01 µM | *** (151 to 500-fold selectivity for ROCK2)
18 | Fc1ccc(CNc2nccc(-c3nccc(C#Cc4ccc5[nH]ncc5c4)n3)n2)nc1 [Ex. 3, 4-((1H-Indazol-5-yl)ethynyl)-N-((5-fluoropyridin-2-yl)methyl)-[2,4′-bipyrimidin]-2′-amine] | 1 to 9.9 µM | < 0.01 µM | *** (151 to 500-fold selectivity for ROCK2)
19 | Fc1ccc(CNc2nccc(-c3nccc(C#Cc4ccc5[nH]ncc5c4)n3)n2)cc1 [Ex. 8, 4-((1H-Indazol-5-yl)ethynyl)-N-(4-fluorobenzyl)-[2,4′-bipyrimidin]-2′-amine] | 1 to 9.9 µM | 0.01 to 0.099 µM | *** (151 to 500-fold selectivity for ROCK2)
20 | C(#Cc1ccnc(-c2ccnc(NCc3ccccc3)n2)n1)c1ccc2[nH]ncc2c1 [Ex. 14, 4-((1H-Indazol-5-yl)ethynyl)-N-benzyl-[2,4′-bipyrimidin]-2′-amine] | 1 to 9.9 µM | 0.01 to 0.099 µM | * (<50-fold selectivity for ROCK2)
21 | Fc1cccc(F)c1CNc1nccc(-c2nccc(C#Cc3ccc4[nH]ncc4c3)n2)n1 [Ex. 27, 4-((1H-Indazol-5-yl)ethynyl)-N-(2,6-difluorobenzyl)-[2,4′-bipyrimidin]-2′-amine] | 10 to 100 µM | 0.1 to 0.99 µM | ** (50 to 150-fold selectivity for ROCK2)
22 | C(#Cc1ccnc(-c2ccnc(NC[C@H]3CCCO3)n2)n1)c1ccc2[nH]ncc2c1 [Ex. 34, (R)-4-((1H-Indazol-5-yl)ethynyl)-N-((tetrahydrofuran-2-yl)methyl)-[2,4′-bipyrimidin]-2′-amine] | 0.1 to 0.99 µM | < 0.01 µM | *** (151 to 500-fold selectivity for ROCK2)
23 | C(#Cc1ccnc(-c2ccnc(NCC3CCCCO3)n2)n1)c1ccc2[nH]ncc2c1 (stereo not drawn) [Ex. 76, 4-((1H-Indazol-5-yl)ethynyl)-N-((tetrahydro-2H-pyran-2-yl)methyl)-[2,4′-bipyrimidin]-2′-amine] | 1 to 9.9 µM | < 0.01 µM | *** (151 to 500-fold selectivity for ROCK2)
24 | C(#Cc1ccnc(-c2ccnc(NCc3nc4ccccc4[nH]3)n2)n1)c1ccc2[nH]ncc2c1 [Ex. 57, N-((1H-Benzo[d]imidazol-2-yl)methyl)-4-((1H-indazol-5-yl)ethynyl)-[2,4′-bipyrimidin]-2′-amine] | 10 to 100 µM | 0.01 to 0.099 µM | **** (>500-fold selectivity for ROCK2)
25 | O=S1(=O)CCC(CNc2nccc(-c3nccc(C#Cc4ccc5[nH]ncc5c4)n3)n2)CC1 [Ex. 85, 4-(((4-((1H-Indazol-5-yl)ethynyl)-[2,4′-bipyrimidin]-2′-yl)amino)methyl)tetrahydro-2H-thiopyran 1,1-dioxide] | 1 to 9.9 µM | < 0.01 µM | *** (151 to 500-fold selectivity for ROCK2)
26 | CN(Cc1ccc(F)cn1)c1nccc(-c2nccc(C#Cc3ccc4[nH]ncc4c3)n2)n1 [Ex. 30, 4-((1H-Indazol-5-yl)ethynyl)-N-((5-fluoropyridin-2-yl)methyl)-N-methyl-[2,4′-bipyrimidin]-2′-amine] | 1 to 9.9 µM | 0.1 to 0.99 µM | * (<50-fold selectivity for ROCK2)
